Where a name gives a salt, the structure may show the parent alone.

This is an account of results in patent US20240139125A1 (INDUSTRIAL COOPERATION FOUNDATION JEONBUK NATIONAL …, priority 2020, published 2024).

Data set [1] can be described thus: Cell viability for BIA and analogues, DU145 cell line. The data set is classed as cell-based. Particulars: human; for viability at 10 µM: DU145, 10 uM; for viability at 20 µM: DU145, 20 uM; for viability: DU145, 50 rpm. The protocol:
(§1) The compound prepared in Example 15 was treated with HT1080 fibrosarcoma cell line at 5 μM and 10 μM and cell viability was measured. In addition, the compound prepared in Example 15 on the DU145 prostate cancer cell line was treated with 10 μM, 20 μM, and 30 μM and cell viability was measured (see Table 2, Table 3).

The nature of data set [2]: Cell viability for BIA and analogues, HT1080 cell line. The data set is classed as cell-based. Particulars: human, HT1080 fibrosarcoma cells; for viability at 5 µM: HT1080, 5 uM; for viability at 10 µM: HT1080, 10 uM. The method, then: HT1080 MDA-MB-231, SKBR3 and MCF7 cell lines were cultured in a 37° C., 5% CO2 incubator in a medium with 10% Fetal Bovine Serum, 1% penicillin and streptomycin (100 U) added to DMEM.
as §1

Turning to `Nc1ccccc1C(=O)/C=C/c1ccccc1` [GM-90130, (E)-1-(2-aminophenyl)-3-phenylprop-2-en-1-one], in data set [1], the viability at 10 µM is 78.7%, the viability at 20 µM worked out at 79.4% and the viability amounted to 48.3%. In data set [2], the viability at 5 µM was 99.5% and the viability at 10 µM was 31.7%.
As to `Nc1ccccc1C(=O)/C=C/c1cc(F)c(O)c(F)c1` [GM-90316, (E)-1-(2-aminophenyl)-3-(3,5-difluoro-4-hydroxyphenyl)prop-2-en-1-one], in data set [1], the viability at 10 µM was 87.4%, the viability at 20 µM worked out at 60% and the viability stood at 38.4%. Besides, in data set [2], the viability at 5 µM is 101% and the viability at 10 µM came to 67.8%.
Take `Nc1ccccc1C(=O)/C=C/c1ccc(F)cc1F` [GM-90223, (E)-1-(2-aminophenyl)-3-(2,4-difluorophenyl)prop-2-en-1-one]: in data set [1], the viability at 10 µM is 26.5%, the viability at 20 µM is 26.3% and the viability came to 21.1%. In data set [2], the viability at 5 µM is 93.8% and the viability at 10 µM came to 86%.
As to `Nc1ccccc1C(=O)/C=C/c1cc(O)cc(Br)c1` [GM-90281, (E)-1-(2-aminophenyl)-3-(3-bromo-5-hydroxyphenyl)prop-2-en-1-one], in data set [1], the viability at 10 µM is 77.4%, the viability at 20 µM stood at 76.4% and the viability was 67%. In addition, in data set [2], the viability at 5 µM was determined as 11.4% and the viability at 10 µM amounted to 11.1%.
Take `COc1ccccc1C(=O)/C=C/c1cccc([N+](=O)[O-])c1` [GM-90134, (E)-1-(2-methoxyphenyl)-3-(3-nitrophenyl)prop-2-en-1-one]: in data set [1], the viability at 10 µM is 31.5%, the viability at 20 µM came out at 25.4% and the viability was determined as 22.8%. For the same compound, in data set [2], the viability at 5 µM came to 99.1% and the viability at 10 µM came to 96.6%.
`COc1cccc(/C=C/C(=O)c2ccccc2N)c1` [GM-90131, (E)-1-(2-aminophenyl)-3-(3-methoxyphenyl)prop-2-en-1-one]: in data set [1], the viability at 10 µM amounted to 81.5%, the viability at 20 µM was 74% and the viability came to 33.2%. Also, in data set [2], the viability at 5 µM was determined as 101% and the viability at 10 µM was 37.4%.
With `CNC(=O)c1cccc(/C=C/C(=O)c2ccccc2N)c1` [GM-90300, (E)-3-(3-(2-aminophenyl)-3-oxoprop-1-en-1-yl)-N-methyl benzamide], in data set [1], the viability at 10 µM turned out to be 62.6%, the viability at 20 µM is 58.5% and the viability is 54.5%. Further, in data set [2], the viability at 5 µM was found to be 99.5% and the viability at 10 µM is 23.4%.
For `Nc1ccccc1C(=O)/C=C/c1ccc2ccccc2c1` [GM-90225, (E)-1-(2-aminophenyl)-3-(naphthalen-2-yl)prop-2-en-1-one] the same measures were 87.4%, 79.4%, 71.2%, 70.5% and 43.5%.
For `N#Cc1cccc(/C=C/C(=O)c2ccccc2N)c1` [GM-90282, (E)-3-(3-(2-aminophenyl)-3-oxoprop-1-en-1-yl)benzonitrile], in data set [1], the viability at 10 µM stood at 72.9%, the viability at 20 µM is 53.4% and the viability was 9.57%. Besides, in data set [2], the viability at 5 µM amounted to 12.2% and the viability at 10 µM turned out to be 7.14%.
For `COc1cc(N)c(C(=O)/C=C/c2cccc(Br)c2)cc1OC` [GM-90255, (E)-1-(2-amino-4,5-dimethoxyphenyl)-3-(3-bromophenyl)prop-2-en-1-one] the same measures were 88.7%, 70.2%, 66.4%, 88.1% and 33.4%.
As for `COc1cc(N)c(C(=O)/C=C/c2cccc(C#N)c2)cc1OC` [GM-90319, (E)-3-(3-(2-amino-4,5-dimethoxyphenyl)-3-oxoprop-1-en-1-yl)benzonitrile], in data set [1], the viability at 10 µM came to 110%, the viability at 20 µM amounted to 88.1% and the viability amounted to 85.8%. Further, in data set [2], the viability at 5 µM came out at 46.6% and the viability at 10 µM is 9.94%.
For the compound `Nc1cccc(/C=C/C(=O)c2ccccc2N)c1` [GM-90315, (E)-1-(2-aminophenyl)-3-(3-aminophenyl)prop-2-en-1-one Hydrochloride], in data set [1], the viability at 10 µM is 98%, the viability at 20 µM came to 97.9% and the viability is 88.9%. In data set [2], the viability at 5 µM worked out at 41.1% and the viability at 10 µM came out at 11.2%.
For `Nc1ccccc1C(=O)/C=C/c1ccc(C(F)(F)F)cc1` [GM-90226, (E)-1-(2-aminophenyl)-3-(4-(trifluoromethyl)phenyl)prop-2-en-1-one] the same measures were 68.1%, 46.8%, 11.8%, 83.9% and 15.4%.
On to `Nc1ccccc1C(=O)/C=C/c1ccc([N+](=O)[O-])cc1` [GM-90133, (E)-1-(2-aminophenyl)-3-(4-nitrophenyl)prop-2-en-1-one], for which, in data set [1], the viability at 10 µM is 50.5%, the viability at 20 µM is 35.2% and the viability worked out at 26.8%. Besides, in data set [2], the viability at 5 µM is 101% and the viability at 10 µM worked out at 54.9%.
For `Nc1ccccc1C(=O)/C=C/c1ccc(OC(F)(F)F)cc1` [GM-90222, (E)-1-(2-aminophenyl)-3-(4-(trifluoromethoxy)phenyl)prop-2-en-1-one], in that order: 40.7%, 31.3%, 28.9%, 109% and 92%.
Take `CCOc1ccc([N+](=O)[O-])cc1C(O)CC(=O)c1ccccc1N` (centres unmarked) [GM-90230, 1-(2-aminophenyl)-3-(2-ethoxy-5-nitrophenyl)-3-hydroxypropan-1-one]: in data set [1], the viability at 10 µM is 66.3%, the viability at 20 µM came out at 29.1% and the viability is 29.3%. Further, in data set [2], the viability at 5 µM was found to be 108% and the viability at 10 µM was determined as 98.8%.
Consider `O=C(/C=C/c1cccc([N+](=O)[O-])c1)c1ccccc1O` [GM-90135, (E)-1-(2-hydroxyphenyl)-3-(3-nitrophenyl)prop-2-en-1-one], for which, in data set [1], the viability at 10 µM worked out at 88.5%, the viability at 20 µM came out at 87.3% and the viability is 64.5%. Further, in data set [2], the viability at 5 µM came out at 99.9% and the viability at 10 µM was 96.8%.
As for `Cc1ccc(/C=C/C(=O)c2ccccc2N)cc1` [GM-90227, (E)-1-(2-aminophenyl)-3-(p-tolyl)prop-2-en-1-one], in data set [1], the viability at 10 µM came to 43.3%, the viability at 20 µM was 36.1% and the viability is 28.2%. Moreover, in data set [2], the viability at 5 µM is 108% and the viability at 10 µM came out at 96.3%.
Take `Nc1ccccc1C(=O)/C=C/c1cccnc1` [GM-90285, (E)-1-(2-aminophenyl)-3-(pyridin-3-yl)prop-2-en-1-one]: in data set [1], the viability at 10 µM worked out at 83.5%, the viability at 20 µM amounted to 82.8% and the viability was 78.8%. In data set [2], the viability at 5 µM came to 71.5% and the viability at 10 µM worked out at 8.35%.

What is called viability is a read-out of living cells in per cent, often relative to untreated cells.
